According to ChEMBL document CHEMBL2407012, “Structural and biological exploration of phe(3)-phe(4)-modified endomorphin-2 peptidomimetics” (ACS Med Chem Lett, 2013):

Target: Delta-type opioid receptor (Homo sapiens, UniProt P41143)
Assay: Displacement of [3H]DPDPE from delta opioid receptor (unknown origin) expressed in CHO cells after 90 mins by liquid scintillation counting
Assay type: cell-based

Sequence of Delta-type opioid receptor (P41143 whole entry): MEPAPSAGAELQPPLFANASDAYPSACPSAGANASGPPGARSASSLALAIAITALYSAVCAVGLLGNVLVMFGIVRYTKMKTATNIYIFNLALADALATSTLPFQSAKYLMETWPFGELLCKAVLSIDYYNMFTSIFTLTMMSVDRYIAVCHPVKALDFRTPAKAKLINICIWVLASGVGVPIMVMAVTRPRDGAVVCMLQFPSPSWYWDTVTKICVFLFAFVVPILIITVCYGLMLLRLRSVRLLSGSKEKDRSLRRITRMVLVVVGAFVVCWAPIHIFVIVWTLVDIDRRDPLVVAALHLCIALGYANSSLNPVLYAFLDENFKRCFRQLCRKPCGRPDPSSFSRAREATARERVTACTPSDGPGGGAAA

| SMILES | Ki |
| --- | --- |
| NC(=O)[C@@H](CNC(=O)C[C@H](Cc1ccccc1)NC(=O)[C@@H]1CCCN1C(=O)[C@@H](N)Cc1ccc(O)cc1)Cc1ccccc1 | 1350 nM |
| NC(=O)[C@@H]1Cc2ccccc2CN(C(=O)C[C@H](Cc2ccccc2)NC(=O)[C@@H]2CCCN2C(=O)[C@@H](N)Cc2ccc(O)cc2)C1 | 695 nM |
| NC(=O)[C@H]1Cc2ccccc2CN(C(=O)C[C@H](Cc2ccccc2)NC(=O)[C@@H]2CCCN2C(=O)[C@@H](N)Cc2ccc(O)cc2)C1 | 187 nM |
| NC(=O)[C@H](CNC(=O)C[C@H](Cc1ccccc1)NC(=O)[C@@H]1CCCN1C(=O)[C@@H](N)Cc1ccc(O)cc1)Cc1ccccc1 | 463 nM |
| NC(=O)C[C@@H]1Cc2ccccc2CN1C(=O)C[C@H](Cc1ccccc1)NC(=O)[C@@H]1CCCN1C(=O)[C@@H](N)Cc1ccc(O)cc1 | 1650 nM |
| NC(=O)[C@H](CNC(=O)[C@H](CNC(=O)[C@@H]1CCCN1C(=O)[C@@H](N)Cc1ccc(O)cc1)Cc1ccccc1)Cc1ccccc1 | 922 nM |
| NC(=O)C[C@H](Cc1ccccc1)NC(=O)C[C@H](Cc1ccccc1)NC(=O)[C@@H]1CCCN1C(=O)[C@@H](N)Cc1ccc(O)cc1 | 2800 nM |

Target: Mu-type opioid receptor (Homo sapiens, UniProt P35372)
Assay: Displacement of [3H]DAMGO from mu opioid receptor (unknown origin) expressed in CHO cells after 90 mins by liquid scintillation counting
Assay type: cell-based

Sequence of Mu-type opioid receptor (P35372 whole entry): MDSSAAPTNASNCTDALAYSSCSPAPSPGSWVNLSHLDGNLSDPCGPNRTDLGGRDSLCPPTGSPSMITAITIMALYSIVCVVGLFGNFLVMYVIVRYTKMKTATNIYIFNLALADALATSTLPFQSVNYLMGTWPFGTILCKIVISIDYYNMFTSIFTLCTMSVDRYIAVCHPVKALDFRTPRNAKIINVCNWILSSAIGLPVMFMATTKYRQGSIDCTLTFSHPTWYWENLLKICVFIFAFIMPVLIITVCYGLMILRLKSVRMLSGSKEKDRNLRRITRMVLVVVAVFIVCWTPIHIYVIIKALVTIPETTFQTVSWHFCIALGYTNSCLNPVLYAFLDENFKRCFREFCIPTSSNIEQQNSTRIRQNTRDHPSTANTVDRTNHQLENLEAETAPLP

| SMILES | Ki |
| --- | --- |
| NC(=O)[C@@H](CNC(=O)C[C@H](Cc1ccccc1)NC(=O)[C@@H]1CCCN1C(=O)[C@@H](N)Cc1ccc(O)cc1)Cc1ccccc1 | 5.5 nM |
| NC(=O)[C@@H]1Cc2ccccc2CN(C(=O)C[C@H](Cc2ccccc2)NC(=O)[C@@H]2CCCN2C(=O)[C@@H](N)Cc2ccc(O)cc2)C1 | 21 nM |
| NC(=O)[C@H]1Cc2ccccc2CN(C(=O)C[C@H](Cc2ccccc2)NC(=O)[C@@H]2CCCN2C(=O)[C@@H](N)Cc2ccc(O)cc2)C1 | 14 nM |
| NC(=O)[C@H](CNC(=O)C[C@H](Cc1ccccc1)NC(=O)[C@@H]1CCCN1C(=O)[C@@H](N)Cc1ccc(O)cc1)Cc1ccccc1 | 3.3 nM |
| NC(=O)C[C@@H]1Cc2ccccc2CN1C(=O)C[C@H](Cc1ccccc1)NC(=O)[C@@H]1CCCN1C(=O)[C@@H](N)Cc1ccc(O)cc1 | 20 nM |
| NC(=O)[C@H](CNC(=O)[C@H](CNC(=O)[C@@H]1CCCN1C(=O)[C@@H](N)Cc1ccc(O)cc1)Cc1ccccc1)Cc1ccccc1 | 101 nM |
| NC(=O)C[C@H](Cc1ccccc1)NC(=O)C[C@H](Cc1ccccc1)NC(=O)[C@@H]1CCCN1C(=O)[C@@H](N)Cc1ccc(O)cc1 | 19 nM |
